# pKi: −log10 of the molar value.
# Biological target: Cathepsin S (Homo sapiens, UniProt P25774)
# Test: Cathepsin S inhibition, fluorogenic peptide substrate kinetic assay
# Assay type: biochemical
# Settings: Table II; Cathepsin S inhibition constant, pH5.5; read-out: Ki Cat. S
# Description: “Inhibition constant”, Ki, is the dissociation constant of the enzyme-inhibitor complex, or the reciprocal of the binding affinity of the inhibitor to the enzyme. […] The inhibited rates are then fit by nonlinear regression to the following equation: [formula]
# where vo is the initial rate of substrate processing in the absence of inhibitor, v; is the initial rate of substrate processing at a concentration [I] of inhibitor, Km is the steady state Michaelis constant (Fersht, A. Structure and Mechanism in Protein Science. New York, W.H. Freeman and Company, 1999), and [S] is the concentration of competitive substrate.
# The assumption being made for the classical inhibition described above is that the free inhibitor concentration is equal to the total inhibitor concentration.
# The inhibition constant, Ki, can be determined from the apparent inhibition constant, Ki^app, for competitive inhibitors by using the following relationship: [formula]
# The optimal substrate for cathepsin S, acetyl-histidine-proline-valine-lysine-amino carbamoyl coumarin, was identified from screening a combinatorial library of fluorogenic peptide substrates (Harris, J. L., B. J. Backes, et al., Proc Natl Acad Sci USA 2000, 97(14), 7754-9). Kinetic measurements are performed in a total reaction volume of 30 μl in 384-well microtiter plates. […] The reactions are initiated by adding the substrate, acetyl-histidine-proline-valine-lysine-amino carbamoyl coumarin, to a final concentration of 50 μM. The rate of substrate hydrolysis is measured by monitoring the increase in fluorescence at an excitation wavelength of 380 nm and an emission wavelength of 450 nm that results from cleavage of the aniline bond in the substrate by the enzyme. The apparent inhibition constants for the compounds are determined from the enzyme progress curves (Kuzmic, P., K. C. Elrod, et al., Anal Biochem 2000, 286(1), 45-50) and are then used to calculate the inhibition constants for competitive inhibitors.
# Cathepsin S, sequence (P25774 115-331, species assumed): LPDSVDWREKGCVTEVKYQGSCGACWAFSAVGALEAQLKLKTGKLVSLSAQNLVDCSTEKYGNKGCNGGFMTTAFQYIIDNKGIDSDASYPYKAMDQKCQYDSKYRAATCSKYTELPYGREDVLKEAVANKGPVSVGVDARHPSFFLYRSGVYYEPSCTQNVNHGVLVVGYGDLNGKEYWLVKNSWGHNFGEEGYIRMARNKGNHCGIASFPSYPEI
row,SMILES,pKi
1,"O=C(N[C@@H](CC1CCCCC1)C(=O)NCCN1CCc2cc(F)ccc21)C1CCN(c2ccc(Cl)nn2)CC1 [Compound 56, 1-(6-Chloro-pyridazin-3-yl)-piperidine-4-carboxylic acid (S)-{2-cyclohexyl-1-[2-(5-fluoro-2,3-dihydro-indol-1-yl)-ethylcarbamoyl]-ethyl}-amide]",> 6.00
2,"C[C@@H](CNc1cccc(S(C)(=O)=O)c1)NC(=O)[C@H](CC1CCCCC1)NC(=O)c1ccc(-c2cccc(F)c2)o1 [Compound 88, 5-(3-Fluoro-phenyl)-furan-2-carboxylic acid {2-cyclohexyl-1-(S)-[2-(3-methanesulfonyl-phenylamino)-1-(S)-methyl-ethylcarbamoyl]-ethyl}-amide]",> 7.00
3,"CS(=O)(=O)c1cccc(C(=O)N[C@@H](CC2CCCCC2)C(=O)NCCN2CCc3cc(F)ccc32)c1 [Compound 80, N-(S)-{2-cyclohexyl-1-[2-(5-fluoro-2,3-dihydro-indol-1-yl)-ethylcarbarnoyl]-ethyl}-3-methanesulfonyl-benzamide]",> 7.00
4,"C[C@@H](CNc1ccc(OCc2ccccc2)cc1)NC(=O)[C@H](CC1CCCCC1)NC(=O)c1ccc(-c2cccc(F)c2)o1 [Compound 266, 5-(3-Fluoro-phenyl)-furan-2-carboxylic acid {1-(S)-[2-(4-benzyloxy-phenylamino)-1-(S)-methyl-ethylcarbamoyl]-2-cyclohexyl-ethyl}-amide]",> 7.00
5,"C[C@@H](CNc1cccc(F)c1F)NC(=O)[C@H](CC1CCCCC1)NC(=O)c1ccc(-c2cccc(F)c2)o1 [Compound 90, 5-(3-Fluoro-phenyl)-furan-2-carboxylic acid {2-cyclohexyl-1-(S)-[2-(2,3-difluoro-phenylamino)-1-(S)-methyl-ethylcarbamoyl]-ethyl}-amide]",> 7.00
6,"C[C@@H](CNc1ccc(OC(F)(F)F)cc1)NC(=O)[C@H](CC(C)(C)C)NC(=O)c1ccc(-c2cccc(F)c2)o1 [Compound 127, 5-(3-Fluoro-phenyl)-furan-2-carboxylic acid {3,3-dimethyl-1-(S)-[1-(S)-methyl-2-(4-trifluoromethoxy-phenylamino)-ethylcarbamoyl]-butyl}-amide]",> 7.00
7,"COc1cccc(C(=O)N[C@@H](CC(C)(C)C)C(=O)N[C@@H](COCc2ccccc2)CN2CCc3cc(F)ccc32)c1 [Compound 155, N-{1-(S)-[1-(R)-Benzyloxymethyl-2-(5-fluoro-2,3-dihydro-indol-1-yl)-ethylcarbamoyl]-3,3-dimethyl-butyl}-3-methoxy-benzamide]",> 7.00

# Second part, the molecule after the results:
row,pKi,SMILES
1,> 7.00,"O=C(N[C@@H](CC1CCCCC1)C(=O)NCCN1CCc2cc(F)ccc21)c1ccc(-c2ccccc2)o1 [Compound 75, 5-Phenyl-furan-2-carboxylic acid (S)-{2-cyclohexyl-1-[2-(5-fluoro-2,3-dihydro-indol-1-yl)-ethylcarbamoyl]-ethyl}-amide]"
2,> 7.00,"Cc1cccc(S(=O)(=O)N[C@@H](CC2CCCCC2)C(=O)NCCN2CCc3cc(F)ccc32)c1 [Compound 243, (S)-3-Cyclohexyl-N-[2-(5-fluoro-2,3-dihydro-indol-1-yl)-ethyl]-2-(toluene-3-sulfonylamino)-propionamide]"
3,> 7.00,"C[C@@H](CNc1ccccc1F)NC(=O)[C@H](CC1CCCCC1)NC(=O)c1ccc(-c2cccc(F)c2)o1 [Compound 95, 5-(3-Fluoro-phenyl)-furan-2-carboxylic acid {2-cyclohexyl-1-(S)-[2-(2-fluoro-phenylamino)-1-(S)-methyl-ethylcarbamoyl]-ethyl}-amide]"
4,> 6.00,"O=C(N[C@@H](Cc1ccccc1)C(=O)NCCN1CCc2cc(F)ccc21)c1ccc(-c2cccc(C(F)(F)F)c2)o1 [Compound 206, N-((S)-1-(2-(5-fluoroindolin-1-yl)ethylcarbamoyl)-2-phenylethyl)-5-(3-(trifluoromethyl)phenyl)furan-2-carboxamide]"
